# Results from PMC6814738, “Bacterial MgrB peptide activates chemoreceptor Fpr3 in mouse accessory olfactory system and drives avoidance behaviour” (Nature Communications, 2019).
# “And” between values parts separate entries of the source, which are not always exact repeats. Equal entries are not always repeated. Peptide text beside a SMILES is read from it. * marks the point of attachment. For = O=C*
# How the values were obtained:
# mouse Fpr3 (Fpr-rs1) = biological target: T1, mouse Fpr3 (Fpr-rs1) (Mus musculus, UniProt O08790); experiment: Heterologous expression / high-throughput Ca2+ imaging agonist screen and sequence selectivity of Fpr3 (Fig. 1a, 2c-e, 2g, 2i); format: cell-based; settings: for Ca2+ response, mean: mean of n = 3 experiments in triplicate (n = 5 for f-MKKFRW), Fpr3 + Gα16 HEK293T, Fluo-4/AM, buffer C1 pH 7.2, mock 0.059-0.060
# T1 construct: expressed in transfected cells; host or cells: HEK293T (DSMZ # ACC-635), transient transfection with jetPEI
# T1 sequence (O08790 1-351): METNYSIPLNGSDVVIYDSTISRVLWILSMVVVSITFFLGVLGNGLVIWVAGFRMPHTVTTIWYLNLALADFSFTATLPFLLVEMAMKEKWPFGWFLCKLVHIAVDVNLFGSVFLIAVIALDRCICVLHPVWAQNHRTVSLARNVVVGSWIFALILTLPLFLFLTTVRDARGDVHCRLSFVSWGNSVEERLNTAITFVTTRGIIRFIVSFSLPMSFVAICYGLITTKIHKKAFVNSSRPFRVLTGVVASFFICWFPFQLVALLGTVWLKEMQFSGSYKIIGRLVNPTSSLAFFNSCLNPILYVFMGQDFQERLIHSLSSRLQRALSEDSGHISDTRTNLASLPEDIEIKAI
# Experimental: An Fpr3 gene subcloned from genomic DNA of C57BL/6J mice into pcDNA3.1 (Invitrogen) was used in heterologous experiments[21],[80]. HEK293T (DSMZ # ACC-635) cells were seeded at 20–30% confluence on poly-D-lysine-coated (10 µg/ml in PBS) black 96-well µCLEAR-Plates (Greiner Bio-One). Cells were transfected 24 h later using jetPEI™ (Polyplus-transfection SA) according to the manufacturer’s protocol for 96-well transfections. For Ca^2+ imaging experiments, 0.125 µg of DNA plasmid encoding Fpr3 were cotransfected with equal amounts of a plasmid encoding Gα16, a promiscuous G protein α-subunit. Ca^2+ signals to agonist stimulation were recorded 48 h post transfection using the Ca^2+ indicator dye Fluo-4/AM (Molecular Probes) and a fluorescence imaging plate reader (FLIPR) system (Molecular Devices). Cotransfection of a plasmid encoding Gα16 with an empty vector used to subclone Fpr3 gave no agonist-evoked Ca^2+ responses.
# We used custom-made peptides with a length of 6–21 amino acids to screen for agonists. Sequences of fMet peptides were designed according to motifs present at the N-termini of 15,125 specific bacterial proteins as annotated in UniProt. Peptides were chemically synthesised, purified, and verified by mass spectroscopy (MALDI-TOF) by commercial suppliers. Purity of all peptides was >95%. Source, sequence and purity of each peptide are listed in Supplementary Data 1. Lyophilised peptides were routinely dissolved in the Ca^2+ imaging assay buffer C1 (130 mM NaCl, 10 mM HEPES, 5 mM KCl, 2 mM CaCl2, 5 mM glucose, pH 7.2) as 0.2–1 mM stock solutions and kept in small aliquots at −20 °C until use. […] The sequences of these peptides exist in proteins from the following bacterial strains[21]: Psychromonas ingrahamii that belongs to a marine ice water microbial community, Desulfotomaculum reducens that is found in deep freshwater lakes, and Pseudomonas grimontii, a plant pathogen. As mice are unlikely to encounter these strains in their natural habitat, these findings are probably not of biological relevance.
# male mice = experiment: Behavioural avoidance test, FEU vs. FEU supplemented with peptide (Fig. 8, Supplementary Fig. 4); format: in vivo, mouse; settings: for avoidance index: mean ± s.e.m.; for Preference (%): group mean value, FEU vs FEU supplemented with 100 µM peptide
# Experimental: These assays were adapted from behavioural procedures described previously[14],[60]. We tested avoidance by giving adult male mice (8–14 week old) of various genotypes a choice to freely investigate two types of chemical stimuli: FEU vs. FEU supplemented with a peptide. Mice were sexually naïve and not exposed to the test stimuli prior to the testing day. Mice were habituated for three days (40 min each day) to clean filter papers (2.5 cm diameter), each deposited in a sterile plastic culture dish and placed in opposite corners of the test cage (30 × 12 cm). After the third habituation period, the test subject was transferred into a new cage containing fresh filter papers/dishes with either of the two test stimuli. One filter paper was impregnated with 45 µl of fresh urine pooled from two sexually naïve female B6 mice (8–16 weeks old) in oestrus (FEU, female oestrous urine) and 5 µl physiological solution containing (in mM): NaCl, 130; KCl, 5; Na-Hepes, 10; CaCl2, 2; glucose, 10; pH = 7.4. For testing the effects of specific peptides, the second filter paper was impregnated with FEU supplemented with a given peptide (100 or 50 µM final concentration, dissolved in physiological solution). Direct physical contact was allowed. Behaviour was recorded for 10 min from the top of the cage. Mice were exposed only once to a given peptide solution, and were exposed to only one peptide stimulus per day. Stimuli were presented in randomised order. […] This investigative behaviour was quantified as the time spent in close contact with each filter paper, scored manually by an observer blind to the experimental conditions using Behavioural Observation Research Interactive Software (BORIS)[85]. Contact time was measured as the time during which the nose crossed the border of a petri dish containing impregnated filter paper. An avoidance index was calculated as (TP — aTU)/(aTP + aTU), with TP as the time an individual mouse investigated a FEU-peptide mixture, aTP as the average time of all tested mice investigating this stimulus and aTU as the average time of all mice investigating FEU without added peptide. Negative values represent avoidance and positive values represent attraction. For analysing investigation of sick conspecifics, B6 mice were injected either with LPS or PBS as described above. In total, 4 h post injection, these mice were anaesthetised with 165 mg/kg ketamine (Pharmacia GmbH, Berlin, Germany) and 11 mg/kg xylazine (Bayer Health Care, Leverkusen, Germany) and then used in behavioural tests.
# [1] = 100 µM, B6 mice (f-MKKFRW also ΔFpr3-lacZ+/+, cGαo+/−, Trpc2+/−)
# [2] = B6, 100 µM in FEU, n = 10-11, negative = avoidance
# [3] = Fig. 8c, individual values, B6 mice
# [4] = Fig. 8c, mean, B6 mice, n = 11 f-MKKFRW, 11 MKKFRW, 10 f-MGFFIS, 10 f-MEQQNK, FEU control -0.002
molecule,measurement,setting,value
CSCC[C@H](NC=O)C(=O)N[C@@H](CCCCN)C(=O)N[C@@H](CCCCN)C(=O)N[C@@H](Cc1ccccc1)C(=O)N[C@@H](CCCNC(=N)N)C(=O)N[C@@H](Cc1c[nH]c2ccccc12)C(=O)O [f-MKKFRW] (For-MKKFRW-OH),"activation of Fpr3 in agonist screen, in words","mouse Fpr3 (Fpr-rs1); 3 µM, Fpr3-transfected HEK293T, Gα16, Fluo-4/AM, FLIPR, Fig. 1a",activated Fpr3-expressing HEK293T
same,"Ca2+ response, mean","mouse Fpr3 (Fpr-rs1); 3 µM, FLIPR",0.110 ∆F/F
same,"Fpr3 activation by sequence variants, in words","mouse Fpr3 (Fpr-rs1); 30 µM (3 or 30 µM for elongated peptides), Fpr3-transfected HEK293T, Fig. 2c-e, i",Fpr3 recognises the core agonist f-MKKFRW
same,"Ca2+ response, mean","mouse Fpr3 (Fpr-rs1); 30 µM, FLIPR",0.423 ∆F/F
same,"specific Ca2+ response of Fpr3 in agonist screen, in words","mouse Fpr3 (Fpr-rs1); 3 or 30 µM, Fpr3-transfected HEK293T, panel of 41 peptides, Fig. 1a",caused Fpr3 activation
same,"avoidance, in words","male mice; 50 µM, B6 mice",mice were still capable of displaying avoidance
same,"avoidance, in words",male mice; [1],robust avoidance
same,"avoidance, in words","male mice; 100 µM, ΔFpr3-lacZ −/−, cGαo −/− and Trpc2 −/− mice",absent
same,avoidance index,"male mice; B6, 50 µM in FEU, N = 9, Supplementary Fig. 4d",-0.34 ± 0.06
same,avoidance index,male mice; [2],−0.34 ± 0.03
same,Preference Index,male mice; [3],-0.2596 and -0.3493 and -0.4593 and -0.377 (2×) and -0.1335 and -0.375 and -0.3656 and -0.2037 and -0.2877 and -0.531
same,Preference Index,male mice; [4],-0.34
same,Preference Index,"male mice; Fig. 8e, individual values, cGao +/-",-0.2157 and -0.2715 and -0.2275 and -0.592 and -0.6063 and -0.5538 and -0.3716 and -0.4364 and -0.4748 and -0.4802 and -0.5951 and -0.504 and -0.5805
same,Preference Index,"male mice; Fig. 8e, individual values, cGao -/-",0.466 and 0.06846 and 0.3027 and 0.3207 and 0.1056 and -0.3803 and 0.00671 and 0.2965 and 0.7963 and 0.4351 and -0.3658 and -0.3561 and -0.3465
same,Preference Index,"male mice; Fig. 8e, mean, cGao +/-, n = 13 f-MKKFRW, 12 MKKFRW, FEU control -0.0358",-0.45
same,Preference Index,"male mice; Fig. 8e, mean, cGao -/-, n = 13, FEU control 0.15",0.10
same,Preference Index,"male mice; Fig. 8f, individual values, Trpc2 +/-",-0.1378 and -0.4957 and -0.5951 and -0.4313 and -0.5692 and -0.4357 and -0.03894 and -0.2863 and -0.157 and -0.6487 and -0.5152 and -0.5504
same,Preference Index,"male mice; Fig. 8f, individual values, Trpc2 -/-",-0.1066 and -0.3083 and -0.1978 and -0.152 and 0.6895 and 0.2354 and -0.08494 and 0.4331 and -0.3499 and -0.2993 and -0.07691
same,Preference Index,"male mice; Fig. 8f, mean, Trpc2 +/-, n = 12 f-MKKFRW, 9 MKKFRW, FEU control -0.0531",-0.41
same,Preference Index,"male mice; Fig. 8f, mean, Trpc2 -/-, n = 11 f-MKKFRW, 8 MKKFRW, FEU control -0.10",-0.02
same,Preference (%),"male mice; Fig. 8g, ∆Fpr3-lacZ +/+ males, FEU/FEU control -5.85844",-25.7155%
same,Preference (%),"male mice; Fig. 8g, ∆Fpr3-lacZ -/- males, FEU/FEU control 2.58474",9.5733%
same,Preference (%),"male mice; Fig. 8h, Trpc2 +/- males, FEU/FEU control 0.100694",-20.0023%
same,Preference (%),"male mice; Fig. 8h, Trpc2 -/- males, FEU/FEU control -3.21189",-1.896%
same,Preference Index,"male mice; Fig. 8d, individual values, ∆Fpr3-lacZ +/+",-0.634 and -0.7071 and -0.2684 and -0.569 and -0.6199 and -0.495 and -0.4793 and -0.629 and -0.5062
same,Preference Index,"male mice; Fig. 8d, individual values, ∆Fpr3-lacZ -/-",-0.00973 and -0.216 and 0.248 and 0.6807 and 0.8928 and 0.2328 and 0.2493 and -0.01291 and 0.00975 and -0.2244 and 0.2479 and 0.4981
same,Preference Index,"male mice; Fig. 8d, mean, ∆Fpr3-lacZ +/+, n = 9 f-MKKFRW, 6 MKKFRW, FEU control -0.06",-0.55
same,Preference Index,"male mice; Fig. 8d, mean, ∆Fpr3-lacZ -/-, n = 12, FEU control 0.19",0.22
same,avoidance index,"male mice; Trpc2 +/−, 100 µM in FEU",−0.41 ± 0.06
same,avoidance index,"male mice; Trpc2 −/−, 100 µM in FEU",−0.02 ± 0.10
same,avoidance index,"male mice; cGαo +/−, 100 µM in FEU",−0.45 ± 0.04
same,avoidance index,"male mice; cGαo −/−, 100 µM in FEU, n = 13",0.10 ± 0.11
same,avoidance index,"male mice; ∆Fpr3-lacZ +/+, 100 µM in FEU",−0.55 ± 0.04
same,avoidance index,"male mice; ∆Fpr3-lacZ −/−, 50 µM in FEU, N = 5, Supplementary Fig. 4d",0.005 ± 0.08
same,avoidance index,"male mice; ∆Fpr3-lacZ −/−, 100 µM in FEU, n = 12",0.22 ± 0.10
f-MGFFIS [bacterial signal peptide fragment],"Ca2+ response, mean","mouse Fpr3 (Fpr-rs1); 3 µM, FLIPR",0.055 ∆F/F
same,"Ca2+ response, mean","mouse Fpr3 (Fpr-rs1); 30 µM, FLIPR",0.048 ∆F/F
same,"avoidance, in words",male mice; [1],failed to elicit avoidance
same,avoidance index,male mice; [2],0.13 ± 0.09
same,Preference Index,male mice; [3],-0.07414 and 0.6081 and -0.2699 and 0.01401 and 0.4619 and -0.1746 and 0.304 and 0.1043 and 0.0419 and 0.2857
same,Preference Index,male mice; [4],0.13
